Test results from PubChem BioAssay AID248 (DTP/NCI, 2004).
“And” between values parts separate entries of the source, which are not always exact repeats. Equal entries are not always repeated. Toxic doses and inconclusive results are not listed. Rule as the data show it: active = T/C of 150% or more; inactive = T/C below 125%.

Test system: L1210 leukemia ip in BDF1 mice, survival T/C
Assay: NCI In Vivo Anticancer Drug Screen. Data for tumor model L1210 Leukemia (intraperitoneal) in B6D2F1 (BDF1) mice
Details: endpoint: mean survival time, higher = longer survival
Summary of the method: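 Value reflects the ratio of survival in compound-treated mice to survival in vehicle-treated controls, with both groups carrying the same transplanted tumor.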

[1] = dose: 100.0 mg/kg/injection, schedule: Q04DX003 (ip), vehicle: saline with Tween-80
[2] = dose: 100.0 mg/kg/injection, schedule: Q01DX001 (ip), vehicle: saline
[3] = dose: 200.0 mg/kg/injection, schedule: Q01DX001 (ip), vehicle: saline
[4] = dose: 400.0 mg/kg/injection, schedule: Q01DX001 (ip), vehicle: saline
[5] = dose: 100.0 mg/kg/injection, schedule: Q01DX009 (ip), vehicle: Klucel (hydroxypropylcellulose) (HPC)
[6] = dose: 200.0 mg/kg/injection, schedule: Q01DX009 (ip), vehicle: Klucel (hydroxypropylcellulose) (HPC)
[7] = dose: 50.0 mg/kg/injection, schedule: Q01DX009 (ip), vehicle: saline
[8] = dose: 100.0 mg/kg/injection, schedule: Q01DX009 (ip), vehicle: saline
[9] = dose: 100.0 mg/kg/injection, schedule: Q04DX003 (ip), vehicle: saline
[10] = dose: 100.0 mg/kg/injection, schedule: Q01DX001 (ip), vehicle: carboxymethylcellulose (CMC)
[11] = dose: 200.0 mg/kg/injection, schedule: Q01DX001 (ip), vehicle: carboxymethylcellulose (CMC)

Measured: T/C

O=c1cc(CCl)[nH]nc1CCl
inactive: dose: 6.0 mg/kg/injection, schedule: Q04DX003 (ip), vehicle: saline with Tween-80 110 % of control | dose: 9.5 mg/kg/injection, schedule: Q04DX003 (ip), vehicle: saline with Tween-80 110 % of control | dose: 14.5 mg/kg/injection, schedule: Q04DX003 (ip), vehicle: saline with Tween-80 117 % of control | dose: 22.0 mg/kg/injection, schedule: Q04DX003 (ip), vehicle: saline with Tween-80 115 % of control and 124 % of control | dose: 25.0 mg/kg/injection, schedule: Q04DX003 (ip), vehicle: saline with Tween-80 115 % of control | dose: 33.0 mg/kg/injection, schedule: Q04DX003 (ip), vehicle: saline with Tween-80 124 % of control | dose: 75.0 mg/kg/injection, schedule: Q04DX003 (ip), vehicle: saline with Tween-80 113 % of control | [1] 111 % of control

O=C(O)C1CCCCN1[N+](=O)[O-] (configuration not stated)
inactive: [2] 96 % of control | [3] 100 % of control | [4] 100 % of control

O=C(/C=C/c1ccccc1)c1ccc(O)cc1O
inactive: dose: 50.0 mg/kg/injection, schedule: Q01DX001 (ip), vehicle: saline 97 % of control | [2] 95 % of control | [3] 97 % of control

CC1=N/C(=N\c2nc3cc(C)c(C)cc3[nH]2)NC(=O)CC1
inactive: dose: 75.0 mg/kg/injection, schedule: Q01DX001 (ip), vehicle: saline 104 % of control

OCC(O)C(O)C(O)CN=Cc1ccccc1O (configuration not stated)
inactive: dose: 75.0 mg/kg/injection, schedule: Q04DX002 (ip), vehicle: saline with Tween-80 106 % of control | dose: 150.0 mg/kg/injection, schedule: Q04DX002 (ip), vehicle: saline with Tween-80 98 % of control | dose: 300.0 mg/kg/injection, schedule: Q04DX002 (ip), vehicle: saline with Tween-80 109 % of control

COc1ccc(OC)c(/C=N\NC(=O)N/N=C/c2cc(OC)ccc2OC)c1
inactive: dose: 100.0 mg/kg/injection, schedule: Q04DX002 (ip), vehicle: saline with Tween-80 101 % of control | dose: 200.0 mg/kg/injection, schedule: Q04DX002 (ip), vehicle: saline with Tween-80 101 % of control | dose: 400.0 mg/kg/injection, schedule: Q04DX002 (ip), vehicle: saline with Tween-80 95 % of control

CC(C)CCCCCCCCOC(=O)c1ccccc1C(=O)OCCCCCCCCC(C)C
inactive: [2] 98 % of control | [3] 103 % of control | [4] 103 % of control

C=CCNC(=S)N(C)Cc1ccccc1Cl
inactive: [5] 90 % of control | [6] 98 % of control

C1CC2CCC[N]3C2C(C1)[O][Pb]31[O]C2CCCC3CCC[N]1C32 (configuration not stated)
inactive: dose: 30.0 mg/kg/injection, schedule: Q01DX015 (ip), vehicle: carboxymethylcellulose (CMC) 91 % of control | dose: 60.0 mg/kg/injection, schedule: Q01DX015 (ip), vehicle: carboxymethylcellulose (CMC) 90 % of control | [5] 97 % of control | dose: 100.0 mg/kg/injection, schedule: Q04DX003 (ip), vehicle: Klucel (hydroxypropylcellulose) (HPC) 95 % of control | [6] 92 % of control | dose: 200.0 mg/kg/injection, schedule: Q04DX003 (ip), vehicle: Klucel (hydroxypropylcellulose) (HPC) 94 % of control | dose: 400.0 mg/kg/injection, schedule: Q04DX003 (ip), vehicle: Klucel (hydroxypropylcellulose) (HPC) 98 % of control

CN1CCC(OC2c3ccccc3CCc3ccccc32)CC1
inactive: dose: 3.12 mg/kg/injection, schedule: Q01DX009 (ip), vehicle: saline 109 % of control | dose: 6.25 mg/kg/injection, schedule: Q01DX009 (ip), vehicle: saline 108 % of control | dose: 12.5 mg/kg/injection, schedule: Q01DX009 (ip), vehicle: saline 106 % of control | dose: 25.0 mg/kg/injection, schedule: Q01DX009 (ip), vehicle: saline 111 % of control | dose: 25.0 mg/kg/injection, schedule: Q04DX003 (ip), vehicle: saline 100 % of control | [7] 117 % of control | dose: 50.0 mg/kg/injection, schedule: Q04DX003 (ip), vehicle: saline 103 % of control | [8] 88 % of control | [9] 86 % of control

CN(C)C(=O)CCC(=O)O
inactive: dose: 100.0 mg/kg/injection, schedule: Q04DX002 (ip), vehicle: saline 103 % of control | dose: 200.0 mg/kg/injection, schedule: Q04DX002 (ip), vehicle: saline 97 % of control | dose: 400.0 mg/kg/injection, schedule: Q04DX002 (ip), vehicle: saline 97 % of control

Nc1ccc(C(=O)CC(N)C(=O)O)cc1O (configuration not stated)
inactive: [10] 112 % of control | [11] 91 % of control | dose: 400.0 mg/kg/injection, schedule: Q01DX001 (ip), vehicle: carboxymethylcellulose (CMC) 100 % of control

Cc1cccc(NC(=O)c2cccc(F)c2)c1C
inactive: [5] 105 % of control | [6] 100 % of control | dose: 400.0 mg/kg/injection, schedule: Q01DX009 (ip), vehicle: Klucel (hydroxypropylcellulose) (HPC) 94 % of control

COC(=O)C1=C(C(=O)OC)C(C(=O)OC)N2C=CC=CC2=C1C(=O)OC (configuration not stated)
inactive: dose: 50.0 mg/kg/injection, schedule: Q01DX001 (ip), vehicle: carboxymethylcellulose (CMC) 94 % of control | [10] 89 % of control | [11] 94 % of control

CCOC(=O)CNc1cc(C)ccc1C
inactive: dose: 100.0 mg/kg/injection, schedule: Q04DX002 (ip), vehicle: Klucel (hydroxypropylcellulose) (HPC) 95 % of control | dose: 200.0 mg/kg/injection, schedule: Q04DX002 (ip), vehicle: Klucel (hydroxypropylcellulose) (HPC) 98 % of control | dose: 400.0 mg/kg/injection, schedule: Q04DX002 (ip), vehicle: Klucel (hydroxypropylcellulose) (HPC) 95 % of control

C=C(c1ccccc1)[P+](c1ccccc1)(c1ccccc1)c1ccccc1
inactive: dose: 15.0 mg/kg/injection, schedule: Q01DX001 (ip), vehicle: saline 109 % of control

Nc1nc(N)c2nc(CNc3ccc(CC(=O)NC(CC(=O)O)C(=O)O)cc3)cnc2n1 (configuration not stated)
inactive: dose: 25.0 mg/kg/injection, schedule: Q01DX009 (ip), vehicle: sodium bicarbonate 104 % of control | dose: 50.0 mg/kg/injection, schedule: Q01DX009 (ip), vehicle: sodium bicarbonate 106 % of control | dose: 100.0 mg/kg/injection, schedule: Q01DX009 (ip), vehicle: sodium bicarbonate 108 % of control

Cc1cc(CN)c(C)cc1CN
inactive: [7] 96 % of control | [8] 95 % of control | [9] 103 % of control | dose: 200.0 mg/kg/injection, schedule: Q01DX009 (ip), vehicle: saline 86 % of control | dose: 200.0 mg/kg/injection, schedule: Q04DX003 (ip), vehicle: saline 97 % of control

CC(Br)C(Br)(C(=O)O)c1ccccc1 (configuration not stated)
inactive: dose: 100.0 mg/kg/injection, schedule: Q04DX003 (ip), vehicle: other 91 % of control | dose: 200.0 mg/kg/injection, schedule: Q04DX003 (ip), vehicle: other 95 % of control | dose: 400.0 mg/kg/injection, schedule: Q04DX003 (ip), vehicle: other 96 % of control

CC(=O)OC1C2OC3C=C(C)CCC3(CO)C(C)(C1OC(C)=O)C21CO1 (configuration not stated)
inactive: dose: 0.8 mg/kg/injection, schedule: Q01DX009 (ip), vehicle: other 107 % of control | dose: 1.6 mg/kg/injection, schedule: Q01DX009 (ip), vehicle: other 111 % of control | dose: 6.4 mg/kg/injection, schedule: Q01DX009 (ip), vehicle: other 95 % of control

CCc1cc(O)c(Cl)c(C)c1Cl
inactive: dose: 50.0 mg/kg/injection, schedule: Q01DX009 (ip), vehicle: gum acacia 97 % of control | dose: 50.0 mg/kg/injection, schedule: Q04DX003 (ip), vehicle: gum acacia 94 % of control | dose: 100.0 mg/kg/injection, schedule: Q01DX009 (ip), vehicle: gum acacia 92 % of control | dose: 100.0 mg/kg/injection, schedule: Q04DX003 (ip), vehicle: gum acacia 98 % of control | dose: 200.0 mg/kg/injection, schedule: Q04DX003 (ip), vehicle: gum acacia 96 % of control

Cc1cccc(Nc2nc(N)nc(N)c2N=O)c1C
inactive: dose: 100.0 mg/kg/injection, schedule: Q01DX Z (ip), vehicle: methylcellulose (MC) 96 % of control | dose: 200.0 mg/kg/injection, schedule: Q01DX Z (ip), vehicle: methylcellulose (MC) 102 % of control

CNC(=O)c1ccccc1N
inactive: [1] 100 % of control | dose: 200.0 mg/kg/injection, schedule: Q04DX003 (ip), vehicle: saline with Tween-80 95 % of control | dose: 400.0 mg/kg/injection, schedule: Q04DX003 (ip), vehicle: saline with Tween-80 98 % of control
